Results from patent publication US20130344140A1, “NOVEL PHARMACEUTICAL COMBINATIONS AND METHODS FOR TREATING CANCER” (Agency for Science, Technology and Research, priority 2011, published 2013).

How the values were obtained:
Type in all cases: cell-based
A549 cells [1] = experiment: Mitotic index of A549 cells exposed to VX-680; settings: A549, VX-680 200 nM
Method: (B) is a graph showing the Mitotic index of A549 cells exposed to VX-680. A549 cells were incubated with VX-680 (200 nM) and the mitotic cells were counted and expressed as a percentage of total cells count. To aid visualization of the condensed chromosomes, H2B-GFP was expressed in A549. Each data point represents the mean±SD (n=3).

[2] = tested on: A549 cells transfected with p53-specific siRNA; experiment: Cell cycle analysis of A549 cells transfected with p53 siRNA and exposed to VX-680; settings: A549 with p53 siRNA knockdown, exposed to VX-680
Method: (B) Extent of endoreduplication is exacerbated in cells with compromised p53 functions. A549 cells transfected with p53 siRNA (Dharmacon pool) were incubated with VX-680 (200 nM) for the indicated time periods after transfection. […] DNA-dependent cell cycle analysis was performed using flow cytometry.
p53 siRNA oligo 1 (p53si) 5′-[…] GCGUCUU-3′ (SEQ ID NO: 9), cyclin A2 siRNA 5′-[…]-3′ (SEQ ID NO: 10) and cyclin B1 siRNA 5′-[…]-3′ were from Dharmacon (Lafayette, Colo., USA) (SEQ ID NO:11). Cells were plated in six-well dishes overnight in antibiotic-free media. Cells were incubated with Optimen (GIBCO) for an hour before transfection using Lipofectamine 2000 (Invitrogen) and siRNA (30 nM) according to the manufacturer's recommendation. Cells were either harvested at 48 h after transfection or incubated with VX-680 for another 48 h before analysis.

A549 cells [3] = experiment: Micronuclei formation and γH2AX staining (immunofluorescence microscopy) in A549 cells
Method: Cells were fixed and stained for γH2AX (green) as described in Materials and Methods in the Examples. Nuclei were counterstained with DAPI blue. Visualization of nuclei and γH2AX positive foci was done by fluorescence microscopy.
Indirect immunofluorescence was carried out as described previously.^14 g-H2AX (Novus Biologicals, Littleton, Colo., USA, NB 100-383) and anti-rabbit Alexa 488-coupled secondary antibody (Molecular Probes, Carlsbad, Calif., USA) were used. Nuclei were counterstained with Hoechst 33342 (Molecular Probes). Immunofluorescence was visualized using Axiolmager Z1 (Zeiss, Gottingen, Germany).

HCT116 p53−/− cells = experiment: Cell cycle analysis of HCT116 p53−/− cells (nutlin-3, VX-680); settings: 200 nM VX-680, later time points (40 and 48 h), compared with p53+/+
Method: (a) is a comparison of the DNA profiles of P53+/+ and p53−/− cells after treatment with VX-680. HCT116 p53+/+ and p53−/− cells were incubated with 200 nM VX-680 and cells were harvested at the indicated time points for analysis of cell cycle distribution.
(b) is a comparison of the DNA profiles of p53+/+ and p53−/− cells with pre-treatment of Nutlin before incubation with VX-680.

[4] = tested on: cyclins A2 and B1 in A549 cells; experiment: Western blot of cell cycle-related proteins after VX-680 treatment; settings: A549, VX-680 time course
Method: (c) is a series of western blots showing the comparison of expression levels of cell cycle-related proteins (Rb, cdc2, Cdk2, cyclin A2, cyclin E1 and cyclin B1) and p53-dependent gene products (MDM2 and p21) at the indicated time points after VX-680 treatment. Downregulation of mitotic cyclins A and B and upregulation of p53-dependent genes p21 and MDM2 correlate with the activation of p53.
(§1) For western blotting, cell extracts were prepared using NP-40 lysis buffer (50 mM Tris-HCl (pH 8.0), 150 mM NaCl, 1% NP-40, 5 mM EDTA supplemented with protease and phosphatase inhibitor cocktails (Sigma).

[5] = tested on: cyclins A2 and B1 mRNAs in wild-type HCT116 cells; experiment: qRT-PCR of transcript levels in HCT116 cells treated with VX-680; settings: VX-680-treated wild-type HCT116 (not in p53−/− or p21−/− cells)
Method: It is noteworthy that cyclins A2 and B1 levels remained high in p53−/− and p21−/− cells even after cells were incubated with VX-680 for 48 h, in contrast to that observed in the wild-type cells.
Total RNA was isolated using the RNeasy kit (Qiagen, Valencia, Calif., USA). The RNA was quantified using spectrophotometric analysis and used for quantitative real-time PCR. The primers used for each target analyzed are available on request. The RNA Master Power SYBR Green Mix (Roche) was used for quantification of mRNA levels.

[6] = tested on: A375, U2OS, A549, HCT116 p53+/+, HCT116 p53−/−, MDA-MB-486 and H1299 cells; experiment: Cell cycle distribution (propidium iodide flow cytometry) in a panel of tumor-derived cell lines after VX-680; settings: 200 nM VX-680; harvested at 24, 48 and 72 h; p53 wild-type, mutant and deleted lines
Method: (a) p53-positive cells (A375, U2OS, A549 and HCT116 p53+/+) and (b) p53-compromised cells (HCT116 p53−/−, […] and H1299) were treated with 200 nM VX-680 and harvested at the indicated time points. Analysis of cell cycle distribution using propidium iodide staining was performed using flow cytometry. Representative DNA profiles are shown. DNA content is indicated. No DNA profile was shown for cells that are 100% apoptotic.
p53 has been implicated in a postmitotic G1 checkpoint in response to various mitotic inhibitors. We examined whether this checkpoint is induced after aurora kinase inhibition by VX-680 and whether tetraploidy is suppressed by wild-type p53 functions. Using a panel of commonly used tumor-derived cell lines expressing either wild-type p53, mutant p53 or a deletion at the p53 gene locus (Table 1), we tested the correlation of p53 gene status to VX-680-induced endoreduplication. These cell lines were treated with VX-680, and harvested for cell cycle analysis at 24, 48 and 72 h.

A375 and HCT116 p53+/+ = experiment: Annexin V apoptosis assay, p53-positive cell lines; settings: various concentrations of VX-680
Method: (§2) Cells were then harvested and stained for annexin V to detect apoptotic cells.
(§3) For analysis of apoptosis, cells were harvested without fixation. Apoptosis was evaluated using the annexin V (fluorescein isothiocyanate (FITC))-propidium iodide binding assay (Roche, Indianapolis, Ind., USA). The extent of apoptosis was quantified as a percentage of annexin V-positive cells over the total cell population. Flow cytometric analysis was performed on a BD LSR II System (BD Biosciences, Stockholm, Sweden). Data were analyzed using FlowJo software and ModFit LT (Verity Software House, Topsham, Me., USA).

[7] = tested on: MDA-MB 468 and HCT116 p53−/−; experiment: Annexin V apoptosis assay, p53-compromised cell lines; settings: various concentrations of VX-680; MDA-MB 468 and HCT116 p53−/−
Method: as §2, §3

ATM = ATM / DNA damage checkpoint dependence of VX-680-induced G2 arrest (western blot, DNA FACS profiles)
Method: as §1

## Cc1cc(Nc2cc(N3CCN(C)CC3)nc(Sc3ccc(NC(=O)C4CC4)cc3)n2)[nH]n1 [VX-680, cyclopropane carboxylic acid of {4-[4-(4-methyl-piperazin-1-yl)-6-(5-methyl-2H-pyrazol-3-ylamino)-pyrimidin-2-ylsulphanyl]-phenyl}-amide]
A549 cells [1]; after treatment
  time at which the mitotic index peaked: 16 h
A549 cells [1]; at 48 h
  mitotic index: 2%
[2]
  cells with 16n DNA content: > 15%
A549 cells [3]; A549, VX-680 48 h
  cells containing at least 1 micronucleus per nucleus: More than 70%
A549 cells [3]; A549, VX-680-treated
  γH2AX staining in the micronuclei: increased
HCT116 p53−/− cells
  endoreduplication: Increased endoreduplication
[4]
  protein levels of cyclins A2 and B1: timedependent decrease
[5]
  cyclins A2 and B1 mRNAs: greatly reduced
[6]
  endoreduplication: all tumor cell lines undergo endoreduplication
A375 and HCT116 p53+/+
  apoptosis (annexin V): underwent apoptosis
[7]
  apoptosis (annexin V): underwent apoptosis
ATM; VX-680-treated cells
  p53 phosphorylation on Ser15: without detectable phosphorylation on Ser15
ATM; low concentrations of VX-680
  activation of ATM (Ser1981 phosphorylation): did not induce activation of ATM
